Patent US8961942B2, “Sunless tanning compositions with adjuvants comprising sulfur comprising moieties” (Conopco, Inc., priority 2011, dated 2015)
Counter-ions that a name gives are not always drawn.

Experiment: In vitro color change (ΔE*) of adjuvant plus dihydroxyacetone formulations on synthetic skin
Details: for ΔE* at 5 hours / ΔE* at 21 hours / ΔE* at 46 hours: Example 4: total adjuvant at molar equivalent of 1% glycine, dihydroxyacetone 2.5%; for ΔE* at 5 hours: pH 3.5, 5 hours; for ΔE* at 21 hours: pH 3.5, 21 hours; for ΔE* at 46 hours: pH 3.5, 46 hours; for ΔE* at 5.5 Hours / ΔE* at 29 Hours / ΔE* at 53 Hours: adjuvant at molar equivalent of 1% glycine with 2.5% dihydroxyacetone, pH 3.5, 5 μl/cm^2, 35° C. and 40% RH
Method: Commercially available Vitro-Skin® (synthetic skin) was used as the substrate and pH of the adjuvant and dihydroxyacetone formulations were maintained at 3.5, adjusted with citric acid.
The synthetic skin was pre-hydrated at 95% Relative Humidity (RH) for about 24 hours and then treated with formulations at a dosage of 5 μl/cm^2. The treated synthetic skin was stored at 35° C. and 40% RH for certain time frames, not exceeding 53 hours. Color development was monitored periodically after treatment using a HunterLab Labscan XE colorimeter. ΔE* is defined as √[(ΔL*)^2+(Δa+)^2+(Δb*)^2] where ΔL* is lightness change, Δa* is the change in +red/−green, Δb* is the change in […] and further where smaller ΔE* indicates less color change.

NCCOS(=O)(=O)O [2-Aminoethyl Hydrogen Sulfate]
ΔE* at 5 hours: 15 | ΔE* at 21 hours: 25 | ΔE* at 46 hours: 27 | ΔE* at 5.5 Hours: 20.0 | ΔE* at 29 Hours: 35.0 | ΔE* at 53 Hours: 39.0

CSCCN [2-Methylthio-Ethylamine]
ΔE* at 5.5 Hours: 22.0 | ΔE* at 29 Hours: 32.0 | ΔE* at 53 Hours: 36.0

NCC(=O)O [Glycine, reference compound]
ΔE* at 5.5 Hours: 15.5 | ΔE* at 29 Hours: 33.0 | ΔE* at 53 Hours: 37.0

NCCS(=O)O [Hypotaurine]
ΔE* at 5.5 Hours: 8.0 | ΔE* at 29 Hours: 21.0 | ΔE* at 53 Hours: 26.0

NCCS(=O)(=O)O [Taurine]
ΔE* at 5 hours: 9 | ΔE* at 21 hours: 26 | ΔE* at 46 hours: 28 | ΔE* at 5.5 Hours: 17.0 | ΔE* at 29 Hours: 33.0 | ΔE* at 53 Hours: 36.0
